In ChEMBL document CHEMBL5154800, “Identification of N, C-capped di- and tripeptides as selective immunoproteasome inhibitors” (Eur J Med Chem, 2022):
pIC50: −log10 of the molar value. Calls of active or inactive are those of the source. No cut-off for these calls is given here.

Legend:
THP-1 [1] = assay: Antiinflammatory activity against LPS-stimulated human THP-1 cells assessed inhibition of IL-6 release at 40 uM measured by ELISA; format: functional, cell-based
MCF7 = assay: Antiproliferative activity against human MCF7 cells assessed as growth inhibition at 0.2 uM measured after 72 hrs by MTT assay; format: functional; details: read-out: GI
Pfeiffer = assay: Antiproliferative activity against human Pfeiffer cells assessed as growth inhibition at 0.2 uM measured after 72 hrs by MTT assay; format: functional; details: read-out: GI
THP-1 [2] = assay: Antiinflammatory activity against LPS-stimulated human THP-1 cells assessed inhibition of TNF-alpha release at 40 uM measured by ELISA; format: functional, cell-based
[3] = Selectivity ratio of IC50 for inhibition of 20S proteasome beta 5c subunit (unknown origin) to IC50 for inhibition of 20S proteasome subunit beta-5i
HT-29 = assay: Antiproliferative activity against human HT-29 cells assessed as growth inhibition at 0.2 uM measured after 72 hrs by MTT assay; format: functional; details: read-out: GI
DOHH-2 = assay: Antiproliferative activity against human DOHH-2 cells assessed as growth inhibition at 0.2 uM measured after 72 hrs by MTT assay; format: functional; details: read-out: GI
HCT-116 [4] = assay: Antiproliferative activity against human HCT-116 cells assessed as growth inhibition at 0.2 uM measured after 72 hrs by MTT assay; format: functional; details: read-out: GI
HCT-116 [5] = assay: Antiproliferative activity against human HCT-116 cells assessed as growth inhibition measured after 72 hrs by CCK-8 assay; format: functional, cell-based; details: HCT-116, 72 h
[6] = target: T1, Proteasome Macropain subunit MB1 (Homo sapiens, UniProt P28074); assay: Inhibition of 20S proteasome subunit beta-5c (unknown origin) using Ac-WLA-AMC as substrate and measured after 30 mins
T1 sequence (P28074 whole entry): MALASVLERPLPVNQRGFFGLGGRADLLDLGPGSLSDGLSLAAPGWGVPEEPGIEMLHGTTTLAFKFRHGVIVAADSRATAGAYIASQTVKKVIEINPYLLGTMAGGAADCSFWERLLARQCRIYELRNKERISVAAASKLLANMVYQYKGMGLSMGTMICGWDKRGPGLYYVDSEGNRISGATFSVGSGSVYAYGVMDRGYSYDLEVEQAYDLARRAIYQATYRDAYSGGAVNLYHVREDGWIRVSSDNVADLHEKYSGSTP

[7] = target: T2, Proteasome subunit beta type-9 (Homo sapiens, UniProt P28065); assay: Inhibition of 20S proteasome subunit beta-1i (unknown origin) using Ac-PAL-AMC as substrate and measured after 30 mins
T2 sequence (P28065 whole entry): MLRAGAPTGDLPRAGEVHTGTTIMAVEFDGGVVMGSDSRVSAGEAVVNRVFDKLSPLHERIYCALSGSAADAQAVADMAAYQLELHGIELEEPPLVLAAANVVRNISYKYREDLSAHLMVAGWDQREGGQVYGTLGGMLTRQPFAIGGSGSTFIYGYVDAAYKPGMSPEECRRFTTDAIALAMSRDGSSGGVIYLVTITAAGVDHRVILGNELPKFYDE

[8] = target: T3, Proteasome subunit beta type-10 (Homo sapiens, UniProt P40306); assay: Inhibition of 20S proteasome subunit beta-2i (unknown origin) using Ac-KQL-AMC as substrate and measured after 30 mins
T3 sequence (P40306 whole entry): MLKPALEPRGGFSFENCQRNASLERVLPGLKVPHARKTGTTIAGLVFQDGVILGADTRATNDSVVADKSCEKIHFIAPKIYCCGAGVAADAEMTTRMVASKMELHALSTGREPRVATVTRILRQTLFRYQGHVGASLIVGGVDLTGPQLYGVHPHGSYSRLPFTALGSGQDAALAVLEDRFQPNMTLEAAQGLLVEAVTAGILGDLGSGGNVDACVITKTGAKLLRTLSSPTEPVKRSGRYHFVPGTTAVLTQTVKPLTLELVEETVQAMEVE

[9] = target: T4, Proteasome subunit beta type-8 (Homo sapiens, UniProt P28062); assay: Inhibition of 20S proteasome subunit beta-5i (unknown origin) using Ac-ANW-AMC as substrate and measured after 30 mins
T4 sequence (P28062 whole entry): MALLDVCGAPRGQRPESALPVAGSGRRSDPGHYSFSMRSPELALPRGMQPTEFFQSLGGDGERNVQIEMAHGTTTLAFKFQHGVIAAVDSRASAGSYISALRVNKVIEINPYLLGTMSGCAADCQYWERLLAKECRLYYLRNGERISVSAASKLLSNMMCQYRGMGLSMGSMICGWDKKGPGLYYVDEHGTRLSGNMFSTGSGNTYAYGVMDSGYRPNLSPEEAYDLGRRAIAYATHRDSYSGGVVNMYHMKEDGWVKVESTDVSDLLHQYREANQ

Ratio IC50 [3] | pIC50 (HCT-116 [5]) | pIC50 [6] | pIC50 [7] | pIC50 [8] | pIC50 [9] | Compound | Activity (THP-1 [1]) | inhibition of growth at 0.2 µM (MCF7) | inhibition of growth at 0.2 µM (Pfeiffer) | Activity (THP-1 [2]) | inhibition of growth at 0.2 µM (HT-29) | inhibition of growth at 0.2 µM (DOHH-2) | inhibition of growth at 0.2 µM (HCT-116 [4])
222 | – | – | – | – | – | CC(C)(C)NC(=O)CC[C@H](NC(=O)CCNC(=O)/C(C#N)=C/c1ccc(Cl)cc1)C(=O)N[C@@H](Cc1ccc2ccccc2c1)C(=O)NCc1cccc2ccccc12 | Active | < 20% | 28% | Active | < 20% | < 20% | < 20%
– | 6.10 | 7.08 | – | – | – | Cc1ccc(CNC(=O)[C@H](Cc2ccc([N+](=O)[O-])cc2)NC(=O)[C@H](CCC(=O)NC(C)(C)C)NC(=O)CCNC(=O)CCl)cc1 | – | < 20% | < 20% | – | < 20% | < 20% | 58%
– | 6.14 | – | – | – | – | COc1ccc(C[C@H](NC(=O)[C@H](C)NC(=O)CN2CCOCC2)C(=O)NC(Cc2ccccc2)C(=O)[C@@]2(C)CO2)cc1 (stereo partly drawn) | Active | < 20% | 36% | Active | 54% | 56% | 75%
– | 5.77 | – | – | – | – | Cc1ccc(CNC(=O)[C@H](Cc2ccc3ccccc3c2)NC(=O)[C@H](CCC(=O)NC(C)(C)C)NC(=O)CCNC(=O)CCl)cc1 | Active | < 20% | 28% | Active | < 20% | < 20% | 60%
535 | – | – | < 4.40 | < 4.40 | – | CC(C)(C)NC(=O)CC[C@H](NC(=O)CCNC(=O)CCl)C(=O)N[C@@H](Cc1ccc2ccccc2c1)C(=O)NCc1cccc2ccccc12 | Active | 25% | < 20% | Active | < 20% | < 20% | 21%
– | 6.34 | – | – | – | – | Cc1ccc(CNC(=O)[C@H](Cc2ccccc2)NC(=O)[C@H](CCC(=O)NC(C)(C)C)NC(=O)[C@H](CNC(=O)CCl)NC(=O)c2cc(C)on2)cc1 | – | < 20% | 30% | – | 54% | < 20% | 83%
124 | – | – | – | – | – | CC(C)(C)NC(=O)CC[C@H](NC(=O)CCNC(=O)/C(C#N)=C/c1ccc(Cl)cc1)C(=O)N[C@@H](Cc1ccccc1)C(=O)NCc1cccc2ccccc12 | Active | < 20% | 32% | Active | < 20% | 34% | 26%
274 | – | – | – | – | – | CCC(=O)NCCC(=O)N[C@@H](CCC(=O)NC(C)(C)C)C(=O)N[C@@H](Cc1ccccc1)C(=O)NCc1cccc2ccccc12 | Active | < 20% | < 20% | Active | < 20% | < 20% | < 20%
– | 6.80 | – | < 4.40 | < 4.40 | 8.53 | Cc1ccc(CNC(=O)[C@H](Cc2ccccc2)NC(=O)[C@H](CCC(=O)NC(C)(C)C)NC(=O)CCNC(=O)/C(C#N)=C/c2ccco2)cc1 | – | < 20% | < 20% | – | 48% | 23% | 76%
113 | – | – | < 4.40 | < 4.40 | 8.42 | CC(C)(C)NC(=O)CC[C@H](NC(=O)CCNC(=O)CCl)C(=O)N[C@@H](Cc1ccccc1)C(=O)NCc1cccc2ccccc12 | Active | < 20% | < 20% | Active | < 20% | < 20% | 21%
> 4 | – | < 5.00 | – | – | 5.56 | Cc1ccc(CNC(=O)[C@H](Cc2ccccc2)NC(=O)[C@H](CC(N)=O)NC(=O)[C@H](CNC(=O)CCl)NC(=O)CN2CCOCC2)cc1 | Active | – | – | Active | – | – | –
36 | – | – | – | – | – | COc1ccc(C[C@H](NC(=O)[C@H](CCC(=O)NC(C)(C)C)NC(=O)CCNC(=O)CCl)C(=O)NCc2ccc(C)cc2)cc1 | Active | < 20% | 28% | Active | < 20% | < 20% | 29%
– | 6.06 | – | – | – | – | Cc1ccc(CNC(=O)[C@H](Cc2ccccc2)NC(=O)[C@H](CCC(=O)NC(C)(C)C)NC(=O)[C@H](CNC(=O)CCl)NC(=O)CCCc2ccccc2)cc1 | – | < 20% | 23% | – | 53% | 25% | 82%
– | 5.96 | – | – | – | – | Cc1ccc(CNC(=O)[C@H](Cc2ccccc2)NC(=O)[C@H](CCC(=O)NC(C)(C)C)NC(=O)[C@H](CNC(=O)CCl)NS(=O)(=O)c2ccc(C)cc2)cc1 | – | < 20% | 26% | – | 59% | 34% | 85%
